US9944618B2, “Inhibiting neurotransmitter reuptake” (Mayo Foundation for Medical Education and Research, priority 2013, dated 2018)
Where two headings read alike, the source gives them in different places.

Tests used:
[1] = target: human serotonin transporter (Homo sapiens (Human), UniProt P31645); experiment: Human SERT (serotonin transporter) uptake assay; format: cell-based; details: read-out: hSERT Ki
Method in brief: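 HEK293F cells transfected with human SERT, about 60,000 per well, settled for ≥3 h at 37° C before compound addition. Uptake was followed with a fluorescent transporter dye in HBSS with 0.02 M HEPES. Background came from 10 μM fluoxetine, nomifensine was the control, n=3.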

[2] = pKa of basic centres (Table 1); format: physicochemical
hERG = hERG (Homo sapiens (Human), UniProt Q12809); experiment: Human ERG (hERG) assay, hERG currents in hERG-expressing CHO cells; format: cell-based; details: hERG-expressing CHO cells
Source text: The voltage-dependent potassium channel encoded by the human ether-a-go-go-related gene (hERG) is believed to play a key role in repolarisation of the ventricular cardiac action potential. Changes in its activity, caused either by inherited mutations of the gene sequence or pharmacological modification, can lead to prolongation of action potential duration. This can lead to prolongation of the QT interval recorded in man on an electrocardiogram and to a potentially fatal cardiac arrhythmia known as Torsades de Pointes.
hERG currents were recorded from hERG-expressing CHO cells. The biophysical and pharmacological characterization of the hERG currents in these cells was performed.

CYP3A4 = CYP3A4 (Homo sapiens (Human), UniProt P08684); experiment: Cytochrome P450 inhibition assay, recombinant CYP3A4 (BFC substrate); format: in vitro ADME; details: recombinant enzyme
[3] = target: human norepinephrine transporter (Homo sapiens (Human), UniProt P23975); experiment: Human NET (norepinephrine transporter) uptake assay; format: cell-based; details: read-out: hNET Ki
Method in brief: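 HEK293F cells transfected with human NET were thawed, plated at about 60,000 cells/well and held at 37 °C for at least 3 h. Compounds came from 10 mM DMSO stocks, with nomifensine as control, in 1×HBSS/0.02 M HEPES. Uptake was followed with a neurotransmitter transporter dye, dosed as % of vendor reconstitution, in triplicate.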

CYP2D6 = CYP2D6 (Homo sapiens (Human), UniProt P10635); experiment: Cytochrome P450 inhibition assay, recombinant CYP2D6 (MAMC substrate); format: in vitro ADME; details: recombinant enzyme
Method: Recombinant enzymes, 3A4 and 2D6, generated using the ABL yeast expression system were used. […] The assay mixture also included K2HPO4 (pH 7.4; conc. 0.1 M) and NADPH (conc. 1 mM). The incubation time was 30 minutes, and the reference inhibitor was A-naphthoflavone. For CYP2D6, the enzyme amount was 2 pmol per well, and the substrate (7-methoxy-4-(aminomethyl)-coumarin; MAMC) was used at 20 μM. The assay mixture also included K2HPO4 (pH 7.4; conc. 0.1 M) and NADPH (conc. 0.06 mM). The incubation time was 35 minutes, and the reference inhibitor was quinidine.
Briefly, 0.6 μL of serially diluted compound was added to 75 μL water. 10 μL of diluted compound in water was then added to each assay plate. 20 μL of a K2HPO4, enzyme, and substrate mixture was added. After 10 minutes of room temperature pre-incubation, 10 μL of NADPH was added, and the plates were placed at 37° C. for 30 or 35 minutes depending on the enzyme being tested. After the incubation was complete, 20 μL of 0.1% Tris/ACN was added to the plate. The plate was read on a FluorStar fluorescence plate reader.

[4] = target: human dopamine transporter (Homo sapiens (Human), UniProt Q01959); experiment: Human DAT (dopamine transporter) uptake assay; format: cell-based; details: read-out: hDAT Ki
Method in brief: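 Uptake inhibition was measured in HEK293F cells transfected with human DAT, plated at ~60,000 cells/well and settled ≥3 h at 37 °C. Compounds came from 10 mM DMSO stocks. Read-out was uptake of a fluorescent neurotransmitter transporter dye in HBSS with 0.02 M HEPES, with dye level given as % of vendor reconstitution; n=3.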

[5] = first base, e.g., an aliphatic primary, secondary, or tertiary amine, read-out: pKa (Base 1)
[6] = second base in the same molecule (if present), read-out: pKa (Base 2)

Chain of CYP3A4 (P08684 whole entry): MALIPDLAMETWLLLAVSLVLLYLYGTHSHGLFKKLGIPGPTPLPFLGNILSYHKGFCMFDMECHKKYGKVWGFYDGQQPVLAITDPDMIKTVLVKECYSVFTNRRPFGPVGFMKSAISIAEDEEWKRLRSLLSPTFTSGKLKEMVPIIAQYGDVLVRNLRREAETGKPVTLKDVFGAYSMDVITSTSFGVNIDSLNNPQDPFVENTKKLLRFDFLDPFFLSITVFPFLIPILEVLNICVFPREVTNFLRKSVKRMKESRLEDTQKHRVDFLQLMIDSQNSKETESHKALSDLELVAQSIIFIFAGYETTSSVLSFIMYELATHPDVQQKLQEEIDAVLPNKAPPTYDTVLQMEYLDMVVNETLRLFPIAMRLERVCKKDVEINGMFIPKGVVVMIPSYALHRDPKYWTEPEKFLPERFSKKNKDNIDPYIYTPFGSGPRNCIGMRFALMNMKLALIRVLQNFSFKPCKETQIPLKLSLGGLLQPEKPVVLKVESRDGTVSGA
Chain of human dopamine transporter (Q01959 whole entry): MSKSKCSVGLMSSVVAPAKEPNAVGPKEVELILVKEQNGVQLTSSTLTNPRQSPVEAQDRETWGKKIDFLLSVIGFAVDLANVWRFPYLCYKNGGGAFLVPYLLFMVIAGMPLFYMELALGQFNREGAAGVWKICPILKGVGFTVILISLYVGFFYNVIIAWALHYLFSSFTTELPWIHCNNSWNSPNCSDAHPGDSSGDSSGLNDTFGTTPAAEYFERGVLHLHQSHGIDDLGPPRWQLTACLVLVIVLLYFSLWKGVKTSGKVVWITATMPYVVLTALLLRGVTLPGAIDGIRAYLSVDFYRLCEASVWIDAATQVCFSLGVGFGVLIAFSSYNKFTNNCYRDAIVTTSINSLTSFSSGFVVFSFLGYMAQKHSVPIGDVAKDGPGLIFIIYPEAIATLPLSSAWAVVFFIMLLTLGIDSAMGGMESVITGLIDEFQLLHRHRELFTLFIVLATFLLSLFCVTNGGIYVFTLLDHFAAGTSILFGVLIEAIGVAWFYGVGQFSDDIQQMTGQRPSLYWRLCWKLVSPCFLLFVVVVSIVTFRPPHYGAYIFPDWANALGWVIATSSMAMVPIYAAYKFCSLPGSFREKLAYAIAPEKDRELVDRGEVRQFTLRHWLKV
Chain of human serotonin transporter (P31645 whole entry): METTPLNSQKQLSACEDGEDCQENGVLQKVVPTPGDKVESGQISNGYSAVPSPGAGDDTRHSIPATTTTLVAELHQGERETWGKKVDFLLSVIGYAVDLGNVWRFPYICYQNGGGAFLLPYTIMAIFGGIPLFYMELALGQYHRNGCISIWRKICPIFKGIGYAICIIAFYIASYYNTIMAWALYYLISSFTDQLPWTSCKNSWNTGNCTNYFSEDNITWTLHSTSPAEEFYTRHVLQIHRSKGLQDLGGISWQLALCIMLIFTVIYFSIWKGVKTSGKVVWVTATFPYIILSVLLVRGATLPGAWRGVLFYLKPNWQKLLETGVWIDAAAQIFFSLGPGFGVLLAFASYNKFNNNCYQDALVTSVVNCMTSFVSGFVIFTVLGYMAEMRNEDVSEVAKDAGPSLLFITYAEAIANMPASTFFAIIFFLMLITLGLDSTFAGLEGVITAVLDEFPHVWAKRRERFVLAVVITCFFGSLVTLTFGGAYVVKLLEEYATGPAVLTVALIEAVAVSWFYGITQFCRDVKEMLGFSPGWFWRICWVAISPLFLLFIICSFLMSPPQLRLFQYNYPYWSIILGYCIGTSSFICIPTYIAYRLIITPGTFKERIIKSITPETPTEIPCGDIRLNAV
Chain of CYP2D6 (P10635 whole entry): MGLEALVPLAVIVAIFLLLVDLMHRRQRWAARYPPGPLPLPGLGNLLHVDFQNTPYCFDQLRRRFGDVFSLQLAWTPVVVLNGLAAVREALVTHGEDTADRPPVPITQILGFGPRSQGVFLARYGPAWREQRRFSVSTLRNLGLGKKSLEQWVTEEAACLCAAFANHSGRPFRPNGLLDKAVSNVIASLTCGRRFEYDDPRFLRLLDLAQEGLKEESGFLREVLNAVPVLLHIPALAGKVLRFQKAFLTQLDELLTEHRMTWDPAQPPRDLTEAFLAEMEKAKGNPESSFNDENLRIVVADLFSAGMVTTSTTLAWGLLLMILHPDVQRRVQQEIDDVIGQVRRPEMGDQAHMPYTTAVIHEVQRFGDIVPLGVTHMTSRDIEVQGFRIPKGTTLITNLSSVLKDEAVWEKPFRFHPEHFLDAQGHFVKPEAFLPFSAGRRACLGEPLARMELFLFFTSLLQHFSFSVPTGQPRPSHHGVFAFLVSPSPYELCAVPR
Chain of hERG (Q12809 whole entry): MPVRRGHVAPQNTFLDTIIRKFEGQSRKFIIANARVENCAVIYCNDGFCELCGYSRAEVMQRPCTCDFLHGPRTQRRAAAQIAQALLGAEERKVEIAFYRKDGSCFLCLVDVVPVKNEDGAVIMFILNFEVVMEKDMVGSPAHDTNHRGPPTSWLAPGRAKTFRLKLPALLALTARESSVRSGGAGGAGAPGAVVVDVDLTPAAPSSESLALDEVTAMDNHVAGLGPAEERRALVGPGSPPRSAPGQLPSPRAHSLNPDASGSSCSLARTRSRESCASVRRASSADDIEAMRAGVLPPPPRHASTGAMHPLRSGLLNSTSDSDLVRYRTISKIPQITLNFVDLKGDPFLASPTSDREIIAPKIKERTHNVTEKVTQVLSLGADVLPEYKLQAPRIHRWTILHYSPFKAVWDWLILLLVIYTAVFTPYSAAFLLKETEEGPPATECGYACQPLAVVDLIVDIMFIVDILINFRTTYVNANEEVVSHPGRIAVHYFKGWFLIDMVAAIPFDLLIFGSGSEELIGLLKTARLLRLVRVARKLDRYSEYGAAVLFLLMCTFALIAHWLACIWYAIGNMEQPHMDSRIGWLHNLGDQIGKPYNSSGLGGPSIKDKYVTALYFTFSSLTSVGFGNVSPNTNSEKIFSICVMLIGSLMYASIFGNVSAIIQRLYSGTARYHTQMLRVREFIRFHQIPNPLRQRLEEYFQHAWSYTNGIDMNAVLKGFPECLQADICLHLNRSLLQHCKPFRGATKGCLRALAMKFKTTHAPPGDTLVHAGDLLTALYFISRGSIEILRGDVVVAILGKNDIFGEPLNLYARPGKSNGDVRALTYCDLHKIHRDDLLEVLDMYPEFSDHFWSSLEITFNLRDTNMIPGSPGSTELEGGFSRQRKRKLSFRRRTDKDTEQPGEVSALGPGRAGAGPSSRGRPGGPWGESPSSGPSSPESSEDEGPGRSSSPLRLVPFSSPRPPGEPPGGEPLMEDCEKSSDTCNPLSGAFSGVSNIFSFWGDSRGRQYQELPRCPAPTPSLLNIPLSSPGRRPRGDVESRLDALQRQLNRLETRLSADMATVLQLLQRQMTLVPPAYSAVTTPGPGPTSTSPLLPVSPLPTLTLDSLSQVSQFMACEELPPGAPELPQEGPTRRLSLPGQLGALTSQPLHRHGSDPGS
Chain of human norepinephrine transporter (P23975 whole entry): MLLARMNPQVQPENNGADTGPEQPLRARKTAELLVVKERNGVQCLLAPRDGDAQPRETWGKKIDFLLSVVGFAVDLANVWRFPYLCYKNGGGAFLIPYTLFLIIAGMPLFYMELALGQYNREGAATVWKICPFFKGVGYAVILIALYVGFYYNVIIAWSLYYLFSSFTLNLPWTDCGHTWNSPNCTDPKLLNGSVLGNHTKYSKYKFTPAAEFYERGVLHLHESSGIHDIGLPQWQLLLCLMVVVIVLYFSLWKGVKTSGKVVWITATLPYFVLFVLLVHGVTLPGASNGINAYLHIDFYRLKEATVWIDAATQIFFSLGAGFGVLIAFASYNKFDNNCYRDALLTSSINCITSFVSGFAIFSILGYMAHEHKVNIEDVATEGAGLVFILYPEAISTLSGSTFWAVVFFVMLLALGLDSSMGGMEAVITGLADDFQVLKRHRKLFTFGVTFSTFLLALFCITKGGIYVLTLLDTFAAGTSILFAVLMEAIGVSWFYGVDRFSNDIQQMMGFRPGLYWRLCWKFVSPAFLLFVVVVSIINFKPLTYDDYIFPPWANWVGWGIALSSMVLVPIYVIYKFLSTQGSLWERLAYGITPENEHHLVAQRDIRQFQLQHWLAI

Row | SMILES | Ki [1] [nM] | pKa [2, 5] | IC50 (CYP3A4) [nM] | Ki [3] [nM] | IC50 (CYP2D6) [nM] | Ki [4] [nM] | pKa (Base 1) ([2]; first base, e.g., an aliphatic primary, secondary, or tertiary amine) | IC50 (hERG) [nM] | pKa [2, 6]
1 | CNC[C@H](c1ccc2ccccc2c1)[C@H](OCC(=O)N1CC[C@H](O)C1)c1ccccc1 [Compound 19] | 4.3 | 9.6 | 20000 | 1.9 | 20000 | 17 |  | 33000 | 
2 | CNC[C@H](c1ccc(Br)c(Cl)c1)[C@@H](O)c1ccccc1 [Compound 21] | 66.4 | 9.4 | 20000 | 2 | 470 | 32.4 |  | 23000 | 
3 | CNC[C@H](c1ccc2ccccc2c1)[C@H](OCc1noc(C)n1)c1ccccc1 [Compound 22] | 2.1 | 9.6 | 15000 | 2 | 180 | 56.7 |  | 15000 | 
4 | CNC[C@H](c1ccc2ccccc2c1)[C@H](O)c1ccc(Cl)nc1 [Compound 26] | 1.6 | 9.6 | 20000 | 2.2 | 27 | 53.5 |  | 7500 | 
5 | CNC[C@H](c1ccc2ccccc2c1)[C@H](O)c1ccccc1C [Compound 28] | 3.4 | 9.7 | 9600 | 2.4 | 160 | 43.8 |  | 15000 | 
6 | C[C@](CN)(Cc1cccnc1)c1ccc2ccccc2c1 [Compound 42] | 0.3 | 9.2 | 3400 | 3.2 | 1100 | 89.5 |  | 27000 | 5.2
7 | CNCC(Cc1cccnc1)c1ccc2ccccc2c1 (stereo not drawn) [Compound 48] | 2.3 | 9.9 | 15000 | 3.8 | 580 | 78 |  | 33000 | 
8 | CNC[C@@H](c1ccc2ccccc2c1)[C@@H](O)c1cccnc1 [Compound 49] | 5.6 | 9.6 | 20000 | 3.8 | 1700 | 213 |  | 25000 | 5.1
9 | CNCC(Cc1ccccc1O)c1ccc2ccccc2c1 (stereo not drawn) [Compound 52] | 20.4 | 10 | 20000 | 4.1 | 900 | 26.7 |  | 12000 | 
10 | CNCC(Cc1ccccc1OC)c1ccc2ccccc2c1 (stereo not drawn) [Compound 57] | 5.9 | 10.1 | 3300 | 5 | 190 | 20.2 |  | 4700 | 

Now from value to compound, other results behind:

Row | Ki [1] [nM] | pKa [2, 5] | IC50 (CYP3A4) [nM] | Ki [3] [nM] | IC50 (CYP2D6) [nM] | Ki [4] [nM] | pKa (Base 1) ([2]; first base, e.g., an aliphatic primary, secondary, or tertiary amine) | SMILES | IC50 (hERG) [nM] | pKa [2, 6]
11 | 5.6 | 9.6 | 20000 | 2 | 4900 | 65.6 |  | CNC[C@H](c1ccc2ccccc2c1)[C@H](OCC(=O)N1CCOCC1)c1ccccc1 [Compound 23] | 21000 | 
12 | 7.5 | 9.6 | 20000 | 2.7 | 12000 | 28.5 |  | CNC[C@H](c1ccc2ccccc2c1)[C@H](OCC(=O)N1CC[C@@H](O)C1)c1ccccc1 [Compound 34] | 33000 | 
13 | 12.6 |  | 8400 | 3.1 | 170 | 34.3 | 10.1 | CNCC(Cc1ccccc1C)c1ccc2ccccc2c1 (stereo not drawn) [Compound 39] | 8200 | 
14 | 12.2 | 10 | 8000 | 3.3 | 1000 | 74.1 |  | CNC[C@@H](Cc1ccc(C)s1)c1ccc2ccccc2c1 [Compound 44] | 3300 | 
15 | 10.7 | 9.7 | 20000 | 5.3 | 560 | 83.2 |  | CNC[C@H](c1ccc2ccccc2c1)[C@@H](O)c1ccccc1F [Compound 60] | 28000 | 
16 | 0.9 | 9.5 | 20000 | 5.8 | 300 | 14.6 |  | CNC[C@H](c1ccc2ccccc2c1)[C@@H](Cl)c1ccccc1 [Compound 61] | 9800 | 
